Data taken from patent US20110082133A1, “PYRIDONE COMPOUNDS” (priority 2008, published 2011).

What was measured:
[1] = biological target: T1, rat EP4 receptor (Rattus norvegicus, UniProt P43114); assay: Evaluation test on EP4 receptor affinity in rat ([3H]PGE2 receptor binding test, membrane fraction); set-up: expressed in transfected cells; host or cells: HEK293 cells, transient transfection (Lipofectamine 2000); membrane fraction used; conditions: [3H]PGE2 0.3 nM, membrane fraction of rat EP4 expressing HEK293 cells
Description: A rat EP4 receptor cDNA was subcloned into an expression vector (pcDNA3.1-V5-His-topo, manufactured by Invitrogen Corporation) to prepare a rat EP4 expression vector. HEK293 cells were cultured in a collagen type I-treated 15 cm dish (manufactured by Asahi Techno Glass Co. Ltd.) to a confluence of 70%. An Opti-MEM culture medium at 1.2 mL/dish and a transfection reagent (Lipofectamine 2000, manufactured by Invitrogen Corporation) at 60 μL/dish were mixed, followed by being left to stand at room temperature for 5 minutes. Then, the rat EP4 receptor expression vector at 15 μg/dish was added thereto, followed by being left to stand at room temperature for 30 minutes. The liquid mixture of the transfection reagent was added into the dish, followed by culturing for 20 to 24 hours. The cell culture was carried out in a CO2 incubator (37° C., 5% CO2).
The culture medium was removed by suction, 10 mL of cooled PBS was added thereto per 15 cm dish, and the cells were scraped using a cell scraper. After washed with cooled PBS (1,200 rpm, 4° C., 5 minutes), suspended in 6 mL/dish of cooled 20 mM Tris-HCl (pH 7.4; manufactured by Nacalai Tesque Inc., 5 mM EDTA included) and homogenized using a Polytron, the homogenate was centrifuged (26,000 rpm, 20 minutes, 4° C.). The obtained precipitate was resuspended in cooled 20 mM Tris-HCl and homogenized again using a Polytron, and the homogenate was centrifuged (26,000 rpm, 20 minutes, 4° C.). The obtained precipitate was resuspended in 50 mM HEPES (pH 7.5; manufactured by Dojindo Laboratories) at 1 mL per dish, homogenized using a Polytron, and freeze-stored at −80° C. as a membrane fraction. At this time, a part thereof was used for the measurement of the protein concentration. Measurement of the protein concentration was carried out using a Protein assay stain (manufactured by Bio-Rad Laboratories) in accordance with a standard Protocol as appended in duplicate.
[^3H]PGE2 50 μL (final concentration 0.3 nM; manufactured by Perkin Elmer Co., Ltd.), 100 μL (20 μg/well) of the membrane fraction prepared from the rat EP4 expression cell, and 50 μL of a test compound were mixed in a 96-well microplate (manufactured by Sumitomo Bakelite Co., Ltd.), incubated at room temperature for 1 hour, then filtered by suction on a microplate (UniFilter-96 GF/B, manufactured by Perkin Elmer Co., Ltd.) using a cell harvester (FilterMate Harvester, manufactured by Perkin Elmer Co., Ltd.), and washed three times with 300 μL/well of a cooled assay buffer (50 mM HEPES, 10 mM MgCl2). Dilution of [^3H]PGE2 and the membrane fraction was carried out using the assay buffer, and dilution of the test compound and the unlabeled PGE2 was carried out using dimethyl sulfoxide and the assay buffer. The UniFilter-96 GF/B was treated by preliminarily washing twice with 200 μL/well of the cooled assay buffer. The UniFilter-96 GF/B after filtration was dried in a dryer overnight, 50 μL/well of a liquid scintillation cocktail (MicroScint20, manufactured by Perkin Elmer Co., Ltd.) was added thereto, and the radioactivity was then measured using a liquid scintillation counter for a microplate (TopCount, manufactured by Perkin Elmer Co., Ltd.). For measurement of the non-specific binding, an unlabeled PGE2 (final concentration 1 μM; manufactured by Cayman Chemical Company) was added. All of the measurements were carried out in duplicate, and the specific binding amount was determined by subtracting the non-specific binding amount from the total binding amount.
According to the test method as described above, the rat EP4 receptor affinity (Ki) of the compound of the formula (I) was measured. […] In this connection, Ex means Example Compound number.

[2] = system: hindlimb blood flow; assay: Hindlimb blood flow increasing action in anesthetized rat; assay type: in vivo, Wistar male rats; conditions: 2 hours after administration, solvent group set as 100%
Description: Wistar male rats were used. The test compound was orally administered, and after 2 hours, the hindlimb blood was measured using a laser blood flow imaging apparatus (PIM II, manufactured by Integral Corporation). At 20 minutes before the measurement, 60 mg/kg of pentobarbital was intraperitoneally administered to conduct anesthesia.

[3] = system: LPS-induced TNF-α production in THP-1 cells; assay: Inhibitory action on LPS-induced TNF-α production in THP-1 cells; assay type: cell-based; conditions: Homo sapiens, 3 hours after LPS, ELISA
Description: Human monocytic cell line THP-1 cells were suspended in an assay medium (PRMI-1640 containing 10% fetal bovine serum, 100 unit/mL penicillin G sodium, and 100 μg/mL streptomycin sulfate), and seeded onto a 96-well plate at 1×10^5 cells/well. 50 μL/well of an assay medium containing a test compound was added thereto, followed by incubation at 37° C. for 30 minutes. Further, 50 μL/well of an assay medium containing 1 to 5 μg/mL of LPS was added thereto, and the TNF-α concentration in the assay medium of each well after 3 hours was measured. The measurement was carried out by means of a standard ELISA method. A 96-well plate which had been coated overnight with an anti-human TNF monoclonal antibody (clone: MAb1) (manufactured by Becton, Dickinson and Company) as a capture antibody was washed with a wash buffer (PBS containing 0.05% Tween-20), and PBS containing 10% fetal bovine serum was incubated at room temperature for 1 hour to perform blocking. After washing with a wash buffer, 100 μL/well of the assay medium to be measured was incubated at 4° C. overnight. As the standard material to be measured, a recombinant human TNF (manufactured by Becton, Dickinson and Company) was used. After washing with a wash buffer, 100 μL of a biotinylated anti-human TNF monoclonal antibody (clone: MAb11) as a detection antibody was treated at room temperature for 1 hour. After washing with a wash buffer, it was treated with 100 μL/well of an HRP-labeled Streptavidin (manufactured by Zymed Laboratories, Inc.) at room temperature for 30 minutes, and washed again. Treatment was conducted using 100 μL/well of a TMB (3,3′,5,5′-tetramethylbenzidine) substrate liquid at room temperature for 20 minutes in a dark room. A 2 M sulfuric acid was added thereto at 50 μL/well to stop the reaction, and an absorbance at 450 nm/570 nm was measured by means of a plate reader SPECRA max (manufactured by Molecular Devices Inc.).

[4] = biological target: T1, rat EP4 receptor; assay: EP4 receptor agonistic action in rat (cAMP increasing action in rat EP4 receptor expression CHO-K1 cells); assay type: cell-based; set-up: expressed in transfected cells; conditions: cAMP increasing action by 1 μM PGE2 taken as 100%
Description: The agonistic activity was evaluated by the cAMP increasing action in the rat EP4 receptor expression cells. The rat EP4 receptor expression vector was introduced into CHO-K1 cells (American Type Culture Collection) to prepare a rat EP4 receptor stable expression cell line. These cells were seeded onto a 96-well microplate at 2×10^4 cell/well, and used for the experiment the next day. The culture medium of each well was removed by suction, 100 μL/well of an assay culture medium (2 μM indomethacin, 0.1% bovine serum albumin-containing α-MEM) was added thereto, and incubated at 37° C. for 1 hour. The culture medium was removed again by suction, and replaced with 100 μL/well of an assay culture medium comprising a test compound and 1 mM IBMX (3-isobutyl-1-methylxanthine). After incubating at 37° C. for 30 minutes, the culture medium was removed by suction, 100 μL/well of a cell lysate (0.2% Triton-X100-containing phosphate buffer physiological saline) was put thereinto, and the plate was shaken for 10 minutes. Using a cAMP femto 2 kit (manufactured by Cis Bio International), the cAMP concentration in the cell lysate was measured. Further, the cAMP increasing action (%) was calculated with the cAMP increasing action by 1 μM PGE2 was taken as 100%.

T1 sequence (P43114 whole entry): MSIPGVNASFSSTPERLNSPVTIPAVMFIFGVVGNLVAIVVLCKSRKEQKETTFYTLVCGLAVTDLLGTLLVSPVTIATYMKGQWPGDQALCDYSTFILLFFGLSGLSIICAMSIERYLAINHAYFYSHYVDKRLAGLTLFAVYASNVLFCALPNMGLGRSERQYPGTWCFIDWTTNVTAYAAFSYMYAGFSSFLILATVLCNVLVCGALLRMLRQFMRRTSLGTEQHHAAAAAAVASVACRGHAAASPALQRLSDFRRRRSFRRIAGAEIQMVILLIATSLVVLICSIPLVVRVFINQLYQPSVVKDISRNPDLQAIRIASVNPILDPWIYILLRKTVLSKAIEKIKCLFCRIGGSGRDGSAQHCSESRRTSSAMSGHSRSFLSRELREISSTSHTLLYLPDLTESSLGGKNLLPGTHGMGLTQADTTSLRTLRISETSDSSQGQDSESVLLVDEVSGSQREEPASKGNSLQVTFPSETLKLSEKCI

Row | SMILES | Ki [1] [nM] | Blood flow relative to the group administered with the solvent ([2]; dose 0.3 mg/kg oral) [%] | further results
1 | CCOc1ccc2c(c1)N(Cc1c(Cl)cc(Cl)c(=O)n1CCc1ccc(C(=O)O)cc1)CC2 [Example 10, 4-(2-{3,5-dichloro-6-[(6-ethoxy-2,3-dihydro-1H-indol-1-yl)methyl]-2-oxopyridin-1(2H)-yl}ethyl)benzoic acid] | 3.2 | 124 | –
2 | CCc1cccc(N(C)Cc2c(Cl)cc(Cl)c(=O)n2CCc2ccc(C(=O)O)cc2)c1 [Example 106] | 28 | 126 | –
3 | CN(Cc1c(Cl)cc(Cl)c(=O)n1CCc1ccc(C(=O)O)cc1)c1cccc(C(F)(F)F)c1 [Example 159] | 3.3 | – | Blood flow relative to the group administered with the solvent ([2]; dose 0.1 mg/kg oral): 122%; IC50 [3]: 2.7 nM
4 | CCC[C@H]1CCCN1Cc1c(Br)ccc(=O)n1CCc1ccc(C(=O)O)cc1 [Example 207] | – | – | Blood flow relative to the group administered with the solvent ([2]; dose 1 mg/kg oral): 140%
5 | CCC[C@H]1CCCN1Cc1c(Cl)cc(Cl)c(=O)n1CCc1ccc(-c2n[nH]c(=O)o2)cc1 [Example 208] | 2.9 | – | cAMP increasing action (%) at 10 μM [4]: 83%
